In US20250263370A1 (Tay Therapeutics Limited, priority 2022, published 2025):
“And” between values parts separate entries of the source, which are not always exact repeats. Identical values can stand only once. “Also recorded” adds a separate entry of the source. Like-named read-outs stand apart in the source and are kept apart here.

Experiments:
[1] = Beagle dog PK study 2 of Example 101 (HPβCD based formulation, IV), with clinical observations; type: in vivo; details: for concentration at 0.083 h / concentration at 0.25 h / concentration at 0.5 h / concentration at 1 h / concentration at 2 h / concentration at 4 h / concentration at 8 h / concentration at 24 h / AUC(0-inf) / AUC(0-t) / C0 / half-life / MRT inf / Vd: beagle, dog, plasma, iv, 1 mg/kg; for MRT inf: read-out: MRTInf—obs; for Vd: read-out: Vss—obs
Procedure: The purpose of this study was to examine the pharmacokinetics of Example 101 in beagle dogs. […] An oral PK study was also undertaken in Lewis rats—see Experimental Method C.
Body weight was recoded prior to dosing, and detailed clinical observations were made prior to dosing and throughout the study, as needed.
78.646 mL of HPβCD (20% solution w/v) was then added with vortex and sonication.
Blood samples (˜0.3 mL) were collected according to a schedule (shown below) by venipuncture of peripheral veins except for the dosing vein, and EDTA-K2 was used as anticoagulant. Within 30 minutes of collection, the samples were centrifuged at approximately 2000×g for 10 minutes at 4° C. to obtain blood plasma. The plasma samples were immediately divided into two aliquots (˜75 μL each), transferred to a cryogenic vial, and stored in a freezer at ˜75±15° C. prior to analysis.
Blood samples were collected at 0.083, 0.25, 0.5, 1, 2, 4, 8, and 24 h following the initial dosing (0 h).
The experiments were conducted on a Shimadzu DGU-20A5R and AB API 5500+LC/MS/MS instrument with an Agilent Poroshell EC-C18 4 μm (50×2.1 mm) column. A gradient of 95% water (0.1% formic acid)/95% acetonitrile (0.1% formic acid) was used as the mobile phase. The sample injection volume was 1 μL, and the flow rate was 0.6 mL/min. The gathered data were used for pharmacokinetic calculations using T½, C0, AUClast, AUCinf, MRTinf, CI, Vss, and Number of Points for Regression as parameters.

[2] = test system: Col1a1, TGF-b1, MCP-1, IL-1b, IL-6, IL-17, TNF-a, and Timp1; experiment: Tissue biomarker mRNA by RT-PCR in ligated kidney of UUO rats; type: in vivo, rat
Description: Serum for blood biochemistry analysis was collected into centrifuge tubes without coagulant four hours after final dosing. Blood plasma samples from group 3 was collected into tubes with K2EDTA four hours after final dosing. At the conclusion of the study (end of the 14-day period), animals were euthanized. Kidney tissue was collected four hours after final dosing. Ligated side kidney was divided into three copies ⅓ fix into 10% formalin for H&E analysis, ⅓ into RNA for PCR analysis of tissue biomarkers Col1a1, TGF-b1, MCP-1, IL-1b, IL-6, IL-17, TNF-a, and Timp1, and ⅓ for hydroxyproline assay analyzed by ELISA. RNA was extracted from tissue using the RNeasy mini kit (Qiagen). RNA concentration was measured using a NanoDrop One Spectrophotometer (ThermoFisher) and converted to cDNA using a High-Capacity RNA-to-cDNA kit (Invitrogen). RT-PCR was performed to measure levels of mRNA of different targets using TaqMan® Gene Expression Master Mix and TaqMan® probe/primer sets on a QuantStudio 6, Real-Time PCR System (ThermoFisher). Fold change in target gene expression was determined using the ΔΔCt method.

[3] = beagle dogs, IV, 0.5 mg/mL in HPβCD based formulation, PK study 2
[4] = dog PK study 2, IV 1 mg/kg, HPβCD, Test Animal 1, read-out: Plasma concentration
[5] = dog PK study 2, IV 1 mg/kg, HPβCD, Test Animal 2, read-out: Plasma concentration
[6] = dog PK study 2, IV 1 mg/kg, HPβCD, Test Animal 3, read-out: Plasma concentration
[7] = dog PK study 2, IV 1 mg/kg, HPβCD, mean, read-out: Average plasma concentration, Mean
[8] = dog PK study 2, IV 1 mg/kg, HPβCD, Test Animal 1
[9] = dog PK study 2, IV 1 mg/kg, HPβCD, Test Animal 2
[10] = dog PK study 2, IV 1 mg/kg, HPβCD, Test Animal 3
[11] = dog PK study 2, IV 1 mg/kg, HPβCD, mean

SMILES: CNC(=O)c1[nH]c(C(=O)NC2CCC2)cc1O[C@@H](C)c1ccccc1 (stereo in doubt) [Example 101, N^5-cyclobutyl-N^2-methyl-3-(1-phenylethoxy)-1H-pyrrole-2,5-dicarboxamide]
- clinical observations [1, 3]: soft feces 8 hours after administration; also recorded: No other clinical observations were made; also recorded: fewer clinical observations in response to Example 101 when prepared in HPβCD
- plasma concentration as a function of time (FIGS. 1D-1E) [1, 3]: Plasma concentrations decreased similarly over the first 2 h post-administration
- concentration at 0.083 h [1, 4]: 1.27 µg/mL
- concentration at 0.083 h [1, 5]: 1.46 µg/mL
- concentration at 0.083 h [1, 6]: 1.58 µg/mL
- concentration at 0.083 h [1, 7]: 1.44 µg/mL
- concentration at 0.25 h [1, 4]: 0.721 µg/mL
- concentration at 0.25 h [1, 5]: 0.82 µg/mL
- concentration at 0.25 h [1, 6]: 0.985 µg/mL
- concentration at 0.25 h [1, 7]: 0.842 µg/mL
- concentration at 0.5 h [1, 4]: 0.322 µg/mL
- concentration at 0.5 h [1, 5]: 0.498 µg/mL
- concentration at 0.5 h [1, 6]: 0.702 µg/mL
- concentration at 0.5 h [1, 7]: 0.507 µg/mL
- concentration at 1 h [1, 4]: 0.187 µg/mL
- concentration at 1 h [1, 5]: 0.14 µg/mL
- concentration at 1 h [1, 6]: 0.32 µg/mL
- concentration at 1 h [1, 7]: 0.216 µg/mL
- concentration at 2 h [1, 4]: 0.0493 µg/mL
- concentration at 2 h [1, 5]: 0.0541 µg/mL
- concentration at 2 h [1, 6]: 0.159 µg/mL
- concentration at 2 h [1, 7]: 0.087 µg/mL
- concentration at 4 h [1, 4]: 0.00483 µg/mL
- concentration at 4 h [1, 5]: 0.0108 µg/mL
- concentration at 4 h [1, 6]: 0.0421 µg/mL
- concentration at 4 h [1, 7]: 0.0192 µg/mL
- concentration at 8 h [1, 4]: 0 µg/mL
- concentration at 8 h [1, 5]: 0.0025 µg/mL
- concentration at 8 h [1, 6]: 0.00658 µg/mL
- concentration at 8 h [1, 7]: 0.00303 µg/mL
- concentration at 24 h ([1]; dog PK study 2, IV 1 mg/kg, HPβCD, 24 h, Test Animal 1): 0 µg/mL
- concentration at 24 h ([1]; dog PK study 2, IV 1 mg/kg, HPβCD, 24 h, Test Animal 2): 0 µg/mL
- concentration at 24 h ([1]; dog PK study 2, IV 1 mg/kg, HPβCD, 24 h, Test Animal 3): 0 µg/mL
- AUC(0-inf) [1, 8]: 0.723 µg·h/mL
- AUC(0-t) [1, 8]: 0.719 µg·h/mL
- C0 [1, 8]: 1.68 µg/mL
- half-life [1, 8]: 34.4 min
- MRT inf [1, 8]: 36.4 min
- Vd [1, 8]: 0.838 L/kg
- AUC(0-inf) [1, 9]: 0.85 µg·h/mL
- AUC(0-t) [1, 9]: 0.844 µg·h/mL
- C0 [1, 9]: 1.95 µg/mL
- half-life [1, 9]: 84.6 min
- MRT inf [1, 9]: 45.1 min
- Vd [1, 9]: 0.886 L/kg
- AUC(0-inf) [1, 10]: 1.38 µg·h/mL
- AUC(0-t) [1, 10]: 1.37 µg·h/mL
- C0 [1, 10]: 2 µg/mL
- half-life [1, 10]: 79.8 min
- MRT inf [1, 10]: 72 min
- Vd [1, 10]: 0.868 L/kg
- AUC(0-inf) [1, 11]: 0.984 µg·h/mL
- AUC(0-t) [1, 11]: 0.977 µg·h/mL
- C0 [1, 11]: 1.88 µg/mL
- half-life [1, 11]: 66 min
- MRT inf [1, 11]: 51 min
- Vd [1, 11]: 0.864 L/kg
- Average plasma concentration, Mean ([1]; dog PK study 2, IV 1 mg/kg, HPβCD, 24 h, mean): BLOQ
- AUClast/D [1, 8]: 719 (ng · h/mL)/(mg/kg)
- AUC—% Extrap—obs [1, 8]: 0.552%
- Cl_obs [1, 8]: 1.39 L/h/kg
- AUClast/D [1, 9]: 844 (ng · h/mL)/(mg/kg)
- AUC—% Extrap—obs [1, 9]: 0.599%
- Cl_obs [1, 9]: 1.18 L/h/kg
- AUClast/D [1, 10]: 1367 (ng · h/mL)/(mg/kg)
- AUC—% Extrap—obs [1, 10]: 0.915%
- Cl_obs [1, 10]: 0.726 L/h/kg
- AUClast/D [1, 11]: 977 (ng · h/mL)/(mg/kg)
- AUC—% Extrap—obs [1, 11]: 0.689%
- Cl_obs [1, 11]: 1.1 L/h/kg
- Col1a1 tissue RNA level relative to UUO + vehicle ([2]; 30 mg/kg BID, kidney): reduced levels
- IL-1b tissue RNA level relative to UUO + vehicle ([2]; 30 mg/kg BID, kidney): reduced levels
- IL-6 tissue RNA level relative to UUO + vehicle ([2]; 30 mg/kg BID, kidney): reduced levels
- MCP-1 tissue RNA level relative to UUO + vehicle ([2]; 30 mg/kg BID, kidney): reduced levels
- TGF-b1 tissue RNA level relative to UUO + vehicle ([2]; 30 mg/kg BID, kidney): reduced levels
- Timp1 tissue RNA level relative to UUO + vehicle ([2]; 30 mg/kg BID, kidney): reduced levels
- expression of IL-17 relative to UUO + vehicle ([2]; 30 mg/kg BID, kidney): limited effect
- expression of TNF-α relative to UUO + vehicle ([2]; 30 mg/kg BID, kidney): limited effect
- Col1a1 RNA level, Normalized Fold Change ([2]; 30 mg/kg, individual animals): 0.67 and 0.33 and 0.21 and 0.55 and 0.28 and 0.41 and 0.86 and 0.69
- IL-1b RNA level, Normalized Fold Change ([2]; 30 mg/kg, individual animals): 0.43 and 0.18 and 0.29 and 0.69 and 0.55 and 0.27 and 0.56 and 0.67
- IL-6 RNA level, Normalized Fold Change ([2]; 30 mg/kg, individual animals): 0.06 and 0.05 and 0.03 and 0.33 and 0.12 (2×) and 0.26 and 0.07
- IL-17 RNA level, Normalized Fold Change ([2]; 30 mg/kg, individual animals): 0.79 and 0.22 and 0.24 and 2.09 and 1.81 and 0.54 and 0.70 and 0.94
- MCP-1 RNA level, Normalized Fold Change ([2]; 30 mg/kg, individual animals): 0.34 and 0.26 and 0.32 and 0.53 and 0.42 and 0.27 and 0.68 and 0.61
- TGF-b1 RNA level, Normalized Fold Change ([2]; 30 mg/kg, individual animals): 0.63 and 0.44 and 0.35 and 0.81 and 0.52 and 0.50 and 0.90 and 0.85
- TNF-a RNA level, Normalized Fold Change ([2]; 30 mg/kg, individual animals): 0.90 and 0.48 and 0.32 and 1.53 and 1.00 and 0.69 and 0.94 and 1.55
- Timp1 RNA level, Normalized Fold Change ([2]; 30 mg/kg, individual animals): 0.65 and 0.41 and 0.44 and 0.71 and 0.54 and 0.56 and 0.94 and 0.97
- Col1a1 RNA level, Normalized Fold Change (Mean + SEM) ([2]; group mean, N 8): 0.50
- IL-1b RNA level, Normalized Fold Change (Mean + SEM) ([2]; group mean, N 8): 0.46
- IL-6 RNA level, Normalized Fold Change (Mean + SEM) ([2]; group mean, N 8): 0.13
- IL-17 RNA level, Normalized Fold Change (Mean + SEM) ([2]; group mean, N 8): 0.92
- MCP-1 RNA level, Normalized Fold Change (Mean + SEM) ([2]; group mean, N 8): 0.43
- TGF-b1 RNA level, Normalized Fold Change (Mean + SEM) ([2]; group mean, N 8): 0.63
- TNF-a RNA level, Normalized Fold Change (Mean + SEM) ([2]; group mean, N 8): 0.93
- Timp1 RNA level, Normalized Fold Change (Mean + SEM) ([2]; group mean, N 8): 0.65
